The results in this text go back to ChEMBL document CHEMBL4038342, “Hydrophilic, Potent, and Selective 7-Substituted 2-Aminoquinolines as Improved Human Neuronal Nitric Oxide Synthase Inhibitors” (J Med Chem, 2017).

Molecules are shown by their SMILES.

In one data set the target is T1, Nitric oxide synthase 3 (Bos taurus, UniProt P29473).
T1 sequence (P29473 whole entry): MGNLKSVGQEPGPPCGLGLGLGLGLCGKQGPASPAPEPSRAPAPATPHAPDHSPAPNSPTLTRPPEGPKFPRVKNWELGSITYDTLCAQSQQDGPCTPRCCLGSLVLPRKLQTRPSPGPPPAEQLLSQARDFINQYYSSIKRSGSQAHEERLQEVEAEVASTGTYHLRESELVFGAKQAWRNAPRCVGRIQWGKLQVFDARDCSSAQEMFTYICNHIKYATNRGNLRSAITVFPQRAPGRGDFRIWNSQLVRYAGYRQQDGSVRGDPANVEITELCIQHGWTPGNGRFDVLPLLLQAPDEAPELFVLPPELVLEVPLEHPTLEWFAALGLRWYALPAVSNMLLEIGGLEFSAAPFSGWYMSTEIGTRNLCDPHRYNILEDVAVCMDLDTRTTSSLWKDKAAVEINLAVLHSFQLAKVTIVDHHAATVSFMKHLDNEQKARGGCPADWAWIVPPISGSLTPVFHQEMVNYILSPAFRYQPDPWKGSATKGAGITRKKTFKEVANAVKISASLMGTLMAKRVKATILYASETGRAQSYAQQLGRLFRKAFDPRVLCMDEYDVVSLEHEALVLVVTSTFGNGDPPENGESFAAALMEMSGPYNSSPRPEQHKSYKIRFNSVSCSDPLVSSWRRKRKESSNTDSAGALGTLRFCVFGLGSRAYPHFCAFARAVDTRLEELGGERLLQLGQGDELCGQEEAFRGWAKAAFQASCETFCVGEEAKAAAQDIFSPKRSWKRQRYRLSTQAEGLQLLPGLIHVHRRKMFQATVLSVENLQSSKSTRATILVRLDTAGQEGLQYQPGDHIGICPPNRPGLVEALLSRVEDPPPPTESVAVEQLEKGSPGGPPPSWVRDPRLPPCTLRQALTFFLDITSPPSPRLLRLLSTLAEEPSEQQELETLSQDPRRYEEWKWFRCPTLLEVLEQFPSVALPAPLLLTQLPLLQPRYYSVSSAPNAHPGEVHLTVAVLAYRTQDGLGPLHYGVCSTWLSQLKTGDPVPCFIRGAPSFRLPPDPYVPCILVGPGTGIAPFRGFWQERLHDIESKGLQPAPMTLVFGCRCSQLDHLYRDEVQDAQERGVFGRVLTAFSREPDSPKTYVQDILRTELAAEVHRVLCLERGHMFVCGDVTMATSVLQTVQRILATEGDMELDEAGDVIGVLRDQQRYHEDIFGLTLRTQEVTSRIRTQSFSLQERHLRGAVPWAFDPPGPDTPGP
The data set is described as follows: Inhibition of recombinant bovine eNOS expressed in Escherichia coli using L-arginine as substrate after 30 secs by hemoglobin capture assay.

Data set [1] deals with Nitric oxide synthase 1 (Rattus norvegicus, UniProt P29476).
Nitric oxide synthase 1 (Rattus norvegicus, UniProt P29476), sequence (P29476 whole entry): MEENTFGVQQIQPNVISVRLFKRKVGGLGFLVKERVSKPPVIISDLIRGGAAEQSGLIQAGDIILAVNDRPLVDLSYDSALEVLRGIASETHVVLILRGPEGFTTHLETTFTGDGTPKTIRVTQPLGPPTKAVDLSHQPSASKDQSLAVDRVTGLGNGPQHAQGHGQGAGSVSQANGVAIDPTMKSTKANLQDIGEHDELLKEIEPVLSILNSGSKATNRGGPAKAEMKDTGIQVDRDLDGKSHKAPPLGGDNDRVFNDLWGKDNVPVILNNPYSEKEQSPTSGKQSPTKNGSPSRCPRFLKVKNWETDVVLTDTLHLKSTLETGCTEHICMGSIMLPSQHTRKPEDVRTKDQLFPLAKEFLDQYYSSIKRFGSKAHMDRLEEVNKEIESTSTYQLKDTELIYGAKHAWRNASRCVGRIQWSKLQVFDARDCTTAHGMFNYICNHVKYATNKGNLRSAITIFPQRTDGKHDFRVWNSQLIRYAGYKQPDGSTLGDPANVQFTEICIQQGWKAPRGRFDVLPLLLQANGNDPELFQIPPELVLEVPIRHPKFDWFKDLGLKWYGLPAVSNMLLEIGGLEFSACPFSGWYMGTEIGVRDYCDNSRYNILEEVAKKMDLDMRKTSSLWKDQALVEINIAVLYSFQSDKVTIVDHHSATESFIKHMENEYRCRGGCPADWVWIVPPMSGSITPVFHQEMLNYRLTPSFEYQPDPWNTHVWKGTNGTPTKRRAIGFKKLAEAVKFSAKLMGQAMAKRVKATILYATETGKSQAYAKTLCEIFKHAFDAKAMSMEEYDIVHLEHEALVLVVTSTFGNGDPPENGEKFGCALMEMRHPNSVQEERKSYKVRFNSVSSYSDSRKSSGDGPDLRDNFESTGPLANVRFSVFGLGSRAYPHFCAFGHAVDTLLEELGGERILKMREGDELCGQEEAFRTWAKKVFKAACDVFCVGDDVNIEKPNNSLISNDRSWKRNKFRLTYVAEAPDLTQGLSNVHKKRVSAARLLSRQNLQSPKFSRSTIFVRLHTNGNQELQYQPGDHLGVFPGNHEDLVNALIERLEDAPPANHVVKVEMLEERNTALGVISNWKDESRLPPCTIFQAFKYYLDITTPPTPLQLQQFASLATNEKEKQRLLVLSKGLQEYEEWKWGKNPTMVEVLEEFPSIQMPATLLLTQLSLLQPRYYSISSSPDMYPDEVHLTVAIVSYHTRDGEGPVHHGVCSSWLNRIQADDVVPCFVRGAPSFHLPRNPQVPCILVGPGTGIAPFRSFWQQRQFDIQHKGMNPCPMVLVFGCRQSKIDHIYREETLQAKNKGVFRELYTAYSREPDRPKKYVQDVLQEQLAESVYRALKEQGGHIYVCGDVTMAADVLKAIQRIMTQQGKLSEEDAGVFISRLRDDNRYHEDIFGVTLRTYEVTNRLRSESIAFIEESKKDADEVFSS
Description: Inhibition of recombinant rat nNOS expressed in Escherichia coli using L-arginine as substrate after 30 secs by hemoglobin capture assay
In data set [2] the target is Nitric oxide synthase 1 (Homo sapiens, UniProt P29475).
Nitric oxide synthase 1 (Homo sapiens, UniProt P29475), sequence (P29475 whole entry): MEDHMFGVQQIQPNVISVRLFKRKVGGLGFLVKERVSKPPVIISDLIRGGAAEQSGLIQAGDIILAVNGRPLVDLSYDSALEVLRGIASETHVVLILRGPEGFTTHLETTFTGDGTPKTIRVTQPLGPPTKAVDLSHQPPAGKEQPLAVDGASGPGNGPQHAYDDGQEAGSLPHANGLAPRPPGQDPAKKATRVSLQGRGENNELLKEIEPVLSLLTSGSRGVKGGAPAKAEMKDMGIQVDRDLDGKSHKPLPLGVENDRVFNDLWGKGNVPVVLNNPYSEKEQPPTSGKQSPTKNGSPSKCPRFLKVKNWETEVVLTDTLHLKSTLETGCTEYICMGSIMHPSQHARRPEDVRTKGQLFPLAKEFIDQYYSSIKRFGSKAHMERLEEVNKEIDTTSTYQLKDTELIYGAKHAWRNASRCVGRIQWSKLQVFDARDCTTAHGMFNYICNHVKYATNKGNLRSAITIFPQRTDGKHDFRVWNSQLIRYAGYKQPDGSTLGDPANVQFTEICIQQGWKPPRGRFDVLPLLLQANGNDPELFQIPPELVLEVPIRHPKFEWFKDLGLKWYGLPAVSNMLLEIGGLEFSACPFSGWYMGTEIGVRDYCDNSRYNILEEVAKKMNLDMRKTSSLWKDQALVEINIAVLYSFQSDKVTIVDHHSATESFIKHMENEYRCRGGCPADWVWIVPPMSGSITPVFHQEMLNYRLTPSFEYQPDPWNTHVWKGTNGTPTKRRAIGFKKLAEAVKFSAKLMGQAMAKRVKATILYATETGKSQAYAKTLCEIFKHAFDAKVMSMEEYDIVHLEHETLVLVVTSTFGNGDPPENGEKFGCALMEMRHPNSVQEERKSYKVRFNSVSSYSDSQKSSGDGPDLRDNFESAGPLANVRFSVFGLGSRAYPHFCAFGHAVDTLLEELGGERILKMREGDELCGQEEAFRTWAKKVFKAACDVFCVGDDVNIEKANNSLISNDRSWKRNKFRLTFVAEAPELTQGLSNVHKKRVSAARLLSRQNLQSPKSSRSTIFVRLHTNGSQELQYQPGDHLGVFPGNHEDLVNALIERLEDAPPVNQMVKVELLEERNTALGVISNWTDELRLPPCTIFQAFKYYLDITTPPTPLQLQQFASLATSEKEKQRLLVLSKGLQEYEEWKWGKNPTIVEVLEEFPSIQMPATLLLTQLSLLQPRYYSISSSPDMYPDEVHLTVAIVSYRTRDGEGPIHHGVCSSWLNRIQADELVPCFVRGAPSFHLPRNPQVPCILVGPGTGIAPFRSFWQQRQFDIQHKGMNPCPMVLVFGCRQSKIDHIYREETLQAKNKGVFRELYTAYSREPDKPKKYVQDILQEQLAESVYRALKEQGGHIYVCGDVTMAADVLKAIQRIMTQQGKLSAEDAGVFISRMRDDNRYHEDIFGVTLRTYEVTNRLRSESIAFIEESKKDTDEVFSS
Description: Inhibition of recombinant human nNOS expressed in Escherichia coli using L-arginine as substrate after 30 secs by hemoglobin capture assay
Data set [3] addresses T2, Nitric oxide synthase, inducible (Mus musculus, UniProt P29477).
T2 sequence (P29477 whole entry): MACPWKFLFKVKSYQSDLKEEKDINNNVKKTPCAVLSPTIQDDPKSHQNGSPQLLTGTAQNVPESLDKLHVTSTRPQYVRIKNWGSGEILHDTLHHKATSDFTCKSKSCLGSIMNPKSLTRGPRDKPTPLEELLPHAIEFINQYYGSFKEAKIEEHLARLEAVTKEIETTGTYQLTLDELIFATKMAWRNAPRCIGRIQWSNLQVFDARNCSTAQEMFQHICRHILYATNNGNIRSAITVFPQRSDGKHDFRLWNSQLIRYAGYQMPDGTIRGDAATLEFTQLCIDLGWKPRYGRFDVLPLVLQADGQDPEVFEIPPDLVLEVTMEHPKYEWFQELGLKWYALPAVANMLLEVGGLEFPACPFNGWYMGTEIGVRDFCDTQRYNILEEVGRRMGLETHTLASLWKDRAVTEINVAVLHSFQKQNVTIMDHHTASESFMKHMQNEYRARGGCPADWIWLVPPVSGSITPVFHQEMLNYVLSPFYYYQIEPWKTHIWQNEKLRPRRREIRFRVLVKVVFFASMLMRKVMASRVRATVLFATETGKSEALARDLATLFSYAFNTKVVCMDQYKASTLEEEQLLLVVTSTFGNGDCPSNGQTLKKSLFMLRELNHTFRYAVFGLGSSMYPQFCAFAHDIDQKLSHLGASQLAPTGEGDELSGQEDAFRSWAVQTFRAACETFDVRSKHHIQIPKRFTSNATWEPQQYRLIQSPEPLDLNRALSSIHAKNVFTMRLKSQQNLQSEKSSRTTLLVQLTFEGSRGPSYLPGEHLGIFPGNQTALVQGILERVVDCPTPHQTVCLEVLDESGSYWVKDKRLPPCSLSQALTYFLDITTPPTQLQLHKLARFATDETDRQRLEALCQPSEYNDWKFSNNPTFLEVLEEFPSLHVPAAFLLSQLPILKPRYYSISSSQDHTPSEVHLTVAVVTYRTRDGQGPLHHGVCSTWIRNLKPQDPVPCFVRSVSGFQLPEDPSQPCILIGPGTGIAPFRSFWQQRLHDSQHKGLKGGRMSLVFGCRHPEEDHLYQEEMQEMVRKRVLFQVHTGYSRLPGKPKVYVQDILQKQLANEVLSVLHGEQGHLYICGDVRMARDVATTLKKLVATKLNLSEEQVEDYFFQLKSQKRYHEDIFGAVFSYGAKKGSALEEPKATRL
Nature of the data set: Inhibition of recombinant mouse macrophage iNOS expressed in Escherichia coli using L-arginine as substrate after 30 secs by hemoglobin capture assay.

Data set [4] can be described thus: Permeability from apical to basolateral side in human Caco2 cells assessed as drug recovery at 10 uM after 2 hrs by LC/MS/MS analysis. The format is ADME, cell-based. The following applies: caco-2, 2 h. In general terms: Passage across Caco-2 layers is used to estimate intestinal permeability.
Data set [5] is described as follows: Permeability from basolateral to apical side in human Caco2 cells assessed as drug recovery at 10 uM after 2 hrs by LC/MS/MS analysis. The following applies: caco-2, 2 h. The format is ADME, cell-based.

As to `Nc1ccc2ccc(CNCCCc3cccnc3)cc2n1`, the figures for the Ki at Nitric oxide synthase 3, at Nitric oxide synthase 1 [1] and on Nitric oxide synthase 1 [2] were 1040 nM, 38 nM and 108 nM, respectively.

As to `CN(C)c1ccc(CNCc2ccc3ccc(N)nc3c2)cc1`, the Ki (as a rule, a dissociation constant, usually derived from enzyme kinetics or from competition with a known ligand) in data set [3] amounted to 42200 nM; on Nitric oxide synthase 3 it was 8420 nM; on Nitric oxide synthase 1 [1] it was 522 nM.

Turning to `Cc1cc(CCNCc2ccc3c(C)cc(N)nc3c2)ccc1C#N`, the Drug recovery in data set [4] turned out to be 58.5%; in data set [5], 83%.

Consider `Cc1ccncc1CCCNCc1ccc2ccc(N)nc2c1`, for which the Ki came out at 13800 nM in data set [3], 562 nM at Nitric oxide synthase 3 and 130 nM on Nitric oxide synthase 1 [2].

In the case of `CN(C)c1cccc(CNCc2ccc3ccc(N)nc3c2)c1`, the Ki in data set [3] turned out to be 30100 nM; on Nitric oxide synthase 3 it was 6530 nM; on Nitric oxide synthase 1 [1], 421 nM; at Nitric oxide synthase 1 [2], 1020 nM.

Turning to `COc1ccncc1CCCNCc1ccc2ccc(N)nc2c1`, the Ki in data set [3] was 17200 nM.
